# Measurements reported in US8969325B2, “TRPV1 antagonists” (AbbVie Inc., priority 2011, dated 2015).
# What was measured:
# [1] = biological target: T1, human TRPV1 (Homo sapiens (Human), UniProt Q8NER1); experiment: Capsaicin Activation Assay (intracellular Ca2+, FLIPR); format: cell-based; details: recombinant HEK293 cells expressing hTRPV1, 50 nM capsaicin
# Outline: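 Ca2+ fluorescence was recorded by FLIPR every 1 to 5 seconds in HEK293 cells, clonally selected for stable human TRPV1 expression and plated one day ahead. Test compounds came as serial dilutions of 10 mM DMSO stocks.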
# [2] = biological target: T1, human TRPV1; experiment: Acid Activation Assay (pH 5.0, intracellular Ca2+, FLIPR); format: cell-based; details: percentage of the maximal pH 5.0-induced response remaining; recombinant HEK293 hTRPV1 cells; maximum concentration tested 37.5 μM
# Outline: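 Readout: peak [Ca2+]i fluorescence over baseline on FLIPR, expressed as percentage remaining of the maximal pH 5.0-evoked signal. Stable hTRPV1-HEK293 cells with Calcium-4 dye received compound (12 half-log concentrations, maximum 37.5 μM) 3 min before acidic pH 5.0 buffer.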
# T1 sequence (Q8NER1 whole entry): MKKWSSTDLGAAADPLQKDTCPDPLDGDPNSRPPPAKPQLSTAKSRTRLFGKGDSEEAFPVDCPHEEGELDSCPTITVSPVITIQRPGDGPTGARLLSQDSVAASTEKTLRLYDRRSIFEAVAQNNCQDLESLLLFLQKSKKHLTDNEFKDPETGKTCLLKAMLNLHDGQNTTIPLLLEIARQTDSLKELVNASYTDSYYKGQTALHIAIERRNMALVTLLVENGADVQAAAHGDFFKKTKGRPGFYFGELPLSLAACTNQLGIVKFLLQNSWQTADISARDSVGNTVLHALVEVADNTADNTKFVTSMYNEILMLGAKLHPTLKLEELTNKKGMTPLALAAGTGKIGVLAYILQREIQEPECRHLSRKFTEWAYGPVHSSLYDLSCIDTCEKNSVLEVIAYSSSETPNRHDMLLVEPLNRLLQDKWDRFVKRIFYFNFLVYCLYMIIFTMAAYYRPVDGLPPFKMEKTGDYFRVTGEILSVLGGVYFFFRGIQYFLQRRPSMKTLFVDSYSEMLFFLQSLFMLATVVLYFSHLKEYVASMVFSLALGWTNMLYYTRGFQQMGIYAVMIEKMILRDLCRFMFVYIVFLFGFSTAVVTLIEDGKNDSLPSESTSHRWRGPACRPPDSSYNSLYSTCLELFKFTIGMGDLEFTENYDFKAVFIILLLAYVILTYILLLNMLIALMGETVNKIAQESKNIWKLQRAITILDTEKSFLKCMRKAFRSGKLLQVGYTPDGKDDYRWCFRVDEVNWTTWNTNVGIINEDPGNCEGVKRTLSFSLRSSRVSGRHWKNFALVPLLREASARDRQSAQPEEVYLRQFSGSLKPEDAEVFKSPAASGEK
SMILES,IC50 [1] [nM],human TRPV1 H^+ (max % remain) [2] [%]
"COCC1(COC)C[C@@H](NC(=O)Nc2cccc3c2ccc(=O)n3C)c2cc(F)ccc2O1 [Example 79, 1-[(4R)-6-fluoro-2,2-bis(methoxymethyl)-3,4-dihydro-2H-chromen-4-yl]-3-(1-methyl-2-oxo-1,2-dihydroquinolin-5-yl)urea]",260,46
"Cn1c(=O)ccc2c(NC(=O)N[C@@H]3CC(CF)(CF)Oc4ccccc43)cccc21 [Example 80, 1-[(4R)-2,2-bis(fluoromethyl)-3,4-dihydro-2H-chromen-4-yl]-3-(1-methyl-2-oxo-1,2-dihydroquinolin-5-yl)urea]",63,45
"Cn1c(=O)ccc2c(NC(=O)N[C@@H]3CC(C)(C)Oc4c3ccc(F)c4F)cccc21 [Example 81, 1-[(4R)-7,8-difluoro-2,2-dimethyl-3,4-dihydro-2H-chromen-4-yl]-3-(1-methyl-2-oxo-1,2-dihydroquinolin-5-yl)urea]",53,39
"Cn1c(=O)ccc2c(NC(=O)N[C@@H]3CCOc4ccc(F)cc43)cccc21 [Example 82, 1-[(4R)-6-fluoro-3,4-dihydro-2H-chromen-4-yl]-3-(1-methyl-2-oxo-1,2-dihydroquinolin-5-yl)urea]",250,56
"Cn1c(=O)ccc2c(NC(=O)N[C@@H]3CC(C)(C)Oc4c3ccc(Cl)c4F)cccc21 [Example 85, 1-[(4R)-7-chloro-8-fluoro-2,2-dimethyl-3,4-dihydro-2H-chromen-4-yl]-3-(1-methyl-2-oxo-1,2-dihydroquinolin-5-yl)urea]",23,39
"Cn1c(=O)ccc2c(NC(=O)N[C@@H]3CCOc4cc(OC(F)(F)F)ccc43)cccc21 [Example 87, 1-(1-methyl-2-oxo-1,2-dihydroquinolin-5-yl)-3-[(4R)-7-(trifluoromethoxy)-3,4-dihydro-2H-chromen-4-yl]urea]",28,57
"Cn1c(=O)ccc2c(NC(=O)N[C@H]3CC4(CCC4)Oc4ccc(F)cc43)cccc21 [Example 88, 1-[(4S)-6-fluoro-3,4-dihydrospiro[chromene-2,1′-cyclobutan]-4-yl]-3-(1-methyl-2-oxo-1,2-dihydroquinolin-5-yl)urea]",2500,51
"Cn1c(=O)ccc2c(NC(=O)N[C@@H]3CC(C)(C)Oc4cc(Br)ccc43)cccc21 [Example 89, 1-[(4R)-7-bromo-2,2-dimethyl-3,4-dihydro-2H-chromen-4-yl]-3-(1-methyl-2-oxo-1,2-dihydroquinolin-5-yl)urea]",31,53
"Cn1c(=O)ccc2c(NC(=O)N[C@@H]3CC(C)(C)Oc4c3cccc4C(F)(F)F)cccc21 [Example 93, 1-[(4R)-2,2-dimethyl-8-(trifluoromethyl)-3,4-dihydro-2H-chromen-4-yl]-3-(1-methyl-2-oxo-1,2-dihydroquinolin-5-yl)urea]",39,47
"Cn1c(=O)ccc2c(NC(=O)N[C@@H]3CC(CF)(CF)Oc4c(F)cccc43)cccc21 [Example 95, 1-[(4R)-8-fluoro-2,2-bis(fluoromethyl)-3,4-dihydro-2H-chromen-4-yl]-3-(1-methyl-2-oxo-1,2-dihydroquinolin-5-yl)urea]",63,54
"Cn1c(=O)ccc2c(NC(=O)N[C@H]3CC(C)(C)Oc4ccc(F)cc43)cccc21 [Example 98, 1-[(4S)-6-fluoro-2,2-dimethyl-3,4-dihydro-2H-chromen-4-yl]-3-(1-methyl-2-oxo-1,2-dihydroquinolin-5-yl)urea]",3700,58
"O=C(Nc1cccc2[nH]c(=O)ccc12)N[C@@H]1CC(CF)(CF)Oc2cc(Cl)ccc21 [Example 99, 1-[(4R)-7-chloro-2,2-bis(fluoromethyl)-3,4-dihydro-2H-chromen-4-yl]-3-(2-oxo-1,2-dihydroquinolin-5-yl)urea]",91,0
"CC1(C)C[C@@H](NC(=O)Nc2ccc3c(c2)NC(=O)CO3)c2cccc(F)c2O1 [Example 100, 1-[(4R)-8-fluoro-2,2-dimethyl-3,4-dihydro-2H-chromen-4-yl]-3-(3-oxo-3,4-dihydro-2H-1,4-benzoxazin-6-yl)urea]",310,95
"CCC1(CC)C[C@@H](NC(=O)Nc2ccc3c(c2)NC(=O)CO3)c2cccc(F)c2O1 [Example 101, 1-[(4R)-2,2-diethyl-8-fluoro-3,4-dihydro-2H-chromen-4-yl]-3-(3-oxo-3,4-dihydro-2H-1,4-benzoxazin-6-yl)urea]",95,105

# Stronger by IC50 [1], values ahead:
IC50 [1] [nM],human TRPV1 H^+ (max % remain) [2] [%],SMILES
19,36,"Cn1c(=O)ccc2c(NC(=O)N[C@@H]3CCc4cc(F)ccc43)cccc21 [Example 83, 1-[(1R)-5-fluoro-2,3-dihydro-1H-inden-1-yl]-3-(1-methyl-2-oxo-1,2-dihydroquinolin-5-yl)urea]"
10,23,"Cn1c(=O)ccc2c(NC(=O)N[C@@H]3CCc4cc(C(F)(F)F)ccc43)cccc21 [Example 86, 1-(1-methyl-2-oxo-1,2-dihydroquinolin-5-yl)-3-[(1R)-5-(trifluoromethyl)-2,3-dihydro-1H-inden-1-yl]urea]"
11,45,"Cn1c(=O)ccc2c(NC(=O)N[C@@H]3C[C@](C)(C(F)(F)F)Oc4ccccc43)cccc21 [Example 90, 1-(1-methyl-2-oxo-1,2-dihydroquinolin-5-yl)-3-[(2R,4R)-2-methyl-2-(trifluoromethyl)-3,4-dihydro-2H-chromen-4-yl]urea]"
15,50,"Cn1c(=O)ccc2c(NC(=O)N[C@@H]3CC(C)(C)Oc4cc(C(F)(F)F)ccc43)cccc21 [Example 91, 1-[(4R)-2,2-dimethyl-7-(trifluoromethyl)-3,4-dihydro-2H-chromen-4-yl]-3-(1-methyl-2-oxo-1,2-dihydroquinolin-5-yl)urea]"
19,43,"Cn1c(=O)ccc2c(NC(=O)N[C@@H]3CC(CF)(CF)Oc4cc(C(F)(F)F)ccc43)cccc21 [Example 92, 1-[(4R)-2,2-bis(fluoromethyl)-7-(trifluoromethyl)-3,4-dihydro-2H-chromen-4-yl]-3-(1-methyl-2-oxo-1,2-dihydroquinolin-5-yl)urea]"
19,53,"Cn1c(=O)ccc2c(NC(=O)N[C@@H]3CC(C)(C)Oc4c(F)cccc43)cccc21 [Example 94, 1-[(4R)-8-fluoro-2,2-dimethyl-3,4-dihydro-2H-chromen-4-yl]-3-(1-methyl-2-oxo-1,2-dihydroquinolin-5-yl)urea]"
8,37,"Cn1c(=O)ccc2c(NC(=O)N[C@@H]3CCc4cc(Cl)ccc43)cccc21 [Example 96, 1-[(1R)-5-chloro-2,3-dihydro-1H-inden-1-yl]-3-(1-methyl-2-oxo-1,2-dihydroquinolin-5-yl)urea]"
17,26,"Cn1c(=O)ccc2c(NC(=O)N[C@@H]3CCOc4c3cccc4C(F)(F)F)cccc21 [Example 97, 1-(1-methyl-2-oxo-1,2-dihydroquinolin-5-yl)-3-[(4R)-8-(trifluoromethyl)-3,4-dihydro-2H-chromen-4-yl]urea]"
